Measurements: patent US10874107B2, “β-lactamase targeted photosensitizer for pesticide and pest detection” (The General Hospital Corporation, priority 2012, dated 2020)

Assays:
[1] = UV-visible and fluorescence emission spectra of prodrug vs. free photosensitizer (TBO); type: physicochemical
[2] = biological target: β-lactamase from Enterobacter cloacae (Enterobacter cloacae, UniProt P05364); test: Enzyme-mediated cleavage of the prodrug (fluorescence emission); type: biochemical
Excerpt: FIGS. 6A and B show plots of (a) fluorescence emission vs. wavelength and (b) fluorescence emission vs. time for the Cephalosporanic acid-photosensitizer prodrug, depicting the enzyme-mediated cleavage of the prodrug.
The prodrug obtained was further studied for release of photosensitizer in presence of β-lactamase from Enterobacter cloacae. For the fluorescence emission study of the prodrug, the solvent employed was water, and the excitation wavelength 635 nm in the presence of beta-lactamase enzyme (from Enterobacter cloacae). Time-dependent fluorescence emission was also measured for photosensitizer release from the prodrug in the presence of enzyme. […] Thus, the prodrug was ynthesized and characterized.

β-lactamase from Enterobacter cloacae, sequence (P05364 21-381): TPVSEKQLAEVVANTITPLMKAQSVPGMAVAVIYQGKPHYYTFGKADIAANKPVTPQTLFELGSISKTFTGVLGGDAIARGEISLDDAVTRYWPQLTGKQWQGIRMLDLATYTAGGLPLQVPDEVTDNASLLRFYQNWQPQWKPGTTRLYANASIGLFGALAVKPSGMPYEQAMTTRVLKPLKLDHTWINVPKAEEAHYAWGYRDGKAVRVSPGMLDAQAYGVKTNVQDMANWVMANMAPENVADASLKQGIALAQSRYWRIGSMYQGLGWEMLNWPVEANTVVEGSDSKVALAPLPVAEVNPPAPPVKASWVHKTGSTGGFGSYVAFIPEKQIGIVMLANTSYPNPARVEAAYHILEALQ

## Cephalosporanic Acid-Toluidine blueO Prodrug
[1]
  quenching of the photosensitizer in the conjugated form: quantitative quenching
[1]; 635 nm excitation, ethanol
  reduction in fluorescence emission maxima (prodrug vs. TBO): ~8 fold
[1]; ethanol, 2.0×10^−5 M, vs. TBO
  shift in the absorption spectra (UV-visible): blue shift
[2]
  lactamase-specific activity: demonstrated lactamase-specific activity
[2]; water, excitation 635 nm, within minutes of incubation with β-lactamase
  increase in excited stated properties (fluorescence emission) on incubation with enzyme: ~5 fold
